Test results reported in patent US20190297888A1, “FUNGICIDAL COMPOUNDS AND MIXTURES FOR FUNGAL CONTROL IN CEREALS” (Dow AgroSciences LLC, priority 2016, published 2019).

What was measured:
[1] = system: Puccinia striiformis (PUCCST); assay: Field assessment of Compound I and penthiopyrad on yellow rust of wheat (AUDPC % control); format: in vivo; details: AUDPC-based, 2 field trials
Excerpt: (§1) Treatments consisting of the compound of Formula I and fungicide compound penthiopyrad were applied either using individually or as a two-way mixture of penthiopyrad with the compound of Formula I. The compound of Formula I was applied with Agnique BP-420 (50% w/w at 0.3% v/v) at 75 and 150 g ai/ha and Penthiopyrad (Vertisan) was applied at 125 and 200 g ai/ha. Commercial standards used in the studies were Fluxapyroxad (Imtrex), applied at 100 g ai/ha, and Metconazole+Fluxapyroxad (Librax), applied at 161 g ai/ha.
Fungicidal treatments containing the compound of Formula I and penthiopyrad, either individually or as a two-way mixture, were assessed against yellow rust of wheat (PUCCST) in two separate field trials. In the first trial, fungicidal treatments were applied twice at B31-32 (early curative, 2% infection at application on L3) and B37-39 (0% infection at application on L) growth stages of winter wheat (TRZAW, Fairplay variety). The treatments were part of an experimental trial designed as a randomized complete block with four replications and a plot of approximately 1×6 m. Treatments were applied at water volume of 200 L/ha, using a backpack plot sprayer (BKPCKENG, F110-015 Hardi (3) Flat fan nozzle) and pressurized at 200 kPa.
In the second trial, fungicidal treatments containing the compound of Formula I and penthiopyrad, either individually or as a two-way mixture, were applied twice at B31-32 (early curative, 5% infection on L5 at application) and B37-39 (early curative, 5% infection on L1 and L2 at application) growth stages of wheat (TRZAW, Torch variety). The treatment was part of an experimental trial designed as a randomized complete block with four replications and a plot of approximately 2×3 m. Treatments were applied at water volume of 200 L/ha, using a backpack precision plot sprayer (BKCKAIR, F110-03 Hypro (4) Flat fan nozzle) and pressurized at 300 kPa.
(§2) Disease severity (percentage of visual diseased foliage on whole plot or leaves) in both field trials was recorded following EPPO PP1/26 guideline prescriptions. Area under the disease progress curve (AUDPC) was calculated for each plot in both trials using the sets of recorded severity data. Relative AUDPC (% control based on AUDPC) was calculated as percent of the nontreated control. Final results for the control of yellow rust of wheat by the compound of Formula I, penthiopyrad and mixtures are reported as an average of the relative AUDPC calculated over all […] field trials. Statistical analysis was done according to ANOVA and Tukey's test (p=0.10).

[2] = system: Zymoseptoria tritici (SEPTTR); assay: Field assessment of Compound I and penthiopyrad on leaf blotch of wheat (AUDPC % control); format: in vivo; details: AUDPC-based, 3 field trials
Excerpt: as §1
Fungicidal treatments containing the compound of Formula I and penthiopyrad, either individually or as a two-way mixture, were assessed against leaf spot of wheat (SEPTTR) in three separate field trials. In the first trial, fungicidal treatments were applied at B33 (3% infection at application on L3) growth stage of winter wheat (TRZAW, Dinosor variety). The treatments were part of an experimental trial designed as a randomized complete block with four replications and a plot of approximately 1×6 m. Treatments were applied at water volume of 200 L/ha, using a backpack plot sprayer (BKPCKENG, FLATFANA nozzle) and pressurized at 200 kPa.
In the second trial, fungicidal treatments were applied twice at B32 (curative, 25% infection at application on L5) and B37-39 (5% infection at application on L3) growth stages of winter wheat (TRZAW, Consort variety). The treatments were part of an experimental trial designed as a randomized complete block with four replications and a plot of approximately 1×2 m. Treatments were applied at water volume of 200 L/ha, using a backpack plot sprayer (BKPCKAIR, Flat fan nozzle) and pressurized at 210 kPa.
In the final trial, fungicidal treatments were applied twice at B32 (protective, 15% infection at application on L6) and B37-39 (12% infection at application on L5) growth stages of winter wheat (TRZAW, Smaragd variety). The treatments were part of an experimental trial designed as a randomized complete block with four replications and a plot of approximately 2×3 m. Treatments were applied at water volume of 200 L/ha, using a backpack plot sprayer (BICYCAIR, FLATFANA nozzle) and pressurized at 220 kPa.
as §2, with “leaf spot” for “yellow rust”, “Statistical analysis was done according to ANOVA and Tukey's test (p=0.10).” left out

SMILES: N#Cc1ccc(Oc2ccc(C(F)(F)C(O)(Cn3ncnc3S)c3ccc(F)cc3F)nc2)cc1 (stereo not shown) [Compound I, 4-((6-(2-(2,4-difluorophenyl)-1,1-difluoro-2-hydroxy-3-(5-mercapto-1H-1,2,4-triazol-1-yl)propyl)pyridin-3-yl)oxy)benzonitrile]
- PUCCST % Control ([1]; rate 75 g ai/ha): 72.8%
- PUCCST % Control ([1]; rate 150 g ai/ha): 76.4%
- SEPTTR % Control ([2]; rate 75 g ai/ha): 60.6%
- SEPTTR % Control ([2]; rate 150 g ai/ha): 71.1%
